Experimental data as given in patent US7312248B2, “Control of parasites in animals by the use of novel trifluoromethanesulfonanilide oxime ether derivatives” (Schering-Plough Animal Health Corporation, priority 2004, dated 2007).
Like-named read-outs stand apart in the source and are kept apart here.

Assays:
Assay type in all cases: in vivo
[1] = test system: Brown Dog Tick (Rhipicephalus sanguineus); test: Dose response protocol for topical application on brown dog ticks (LD50); details: 24 h mortality
[2] = test system: cat flea (Ctenocephalides felis); test: Ctenocephalides felis adulticide assay: dose response (LC50)
In short: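 Groups of 15 adult cat fleas, 3–7 days post-emergence, were exposed for 24 h at 25° C and 75% humidity to glass flask bases coated with six serial doses in acetone and dried for 24 h. Mortality was scored at 8 and 24 h, and LC50 was the surface-treatment concentration killing 50%.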

[3] = test system: cat flea (Ctenocephalides felis); test: whole plant or invertebrate; details: Ctenocephalides felis, Laboratory 1 A data
In short: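 Adult C. felis (3-7 days post-emergence; 15 per flask, at least 4 replicates) exposed to a glass flask base dried 24 h after coating with compound in acetone at 1.26 μg/cm^2. Held at 25±1 °C, 75±5% humidity; mortality (immobile or unable to right) scored at 8, 24 and/or 48 h as percentage.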

[4] = 8 h, read-out: C. felis Mortality (%) 8 h, 8 h
[5] = 24 h, read-out: C. felis Mortality (%) 24 h, 24 h

Compound	R. sanguineus LD50 [1]	C. felis LC50 ([2]; Laboratory 1 C data)	C. felis LC50 ([2]; Laboratory 2 D data)	mortality at 1.26 µg/cm2, 1.26 µg/cm2 [3, 4]	mortality at 1.26 µg/cm2, 1.26 µg/cm2 [3, 5]
CC/C(=N\OCc1ccc(C(F)(F)F)cc1)c1cc(Cl)ccc1NS(=O)(=O)C(F)(F)F [Compound 9]	2.7 μg/tick	0.1 μg/cm^2	0.01 μg/cm^2	86%	98%
CC/C(=N\OCc1ccc(Cl)cc1)c1cc(Cl)ccc1NS(=O)(=O)C(F)(F)F [Compound 11, N-{4-chloro-2-[1-(4-chlorobenzyloxyimino)propyl]phenyl}trifluoromethanesulfonamide]	2.5 μg/tick	0.1 μg/cm^2	0.01 μg/cm^2	87%	100%
